# From patent US10407422B2, “Triazolopyridine inhibitors of myeloperoxidase” (priority 2015, dated 2019)
# Molecular target: T1, myeloperoxidase (MPO) (Homo sapiens (Human), UniProt P05164)
# Experiment: MPO peroxidation assay (Amplex Red assay)
# Type: biochemical
# Details: potency range class
# Protocol: MPO Peroxidation Assay (Amplex Red Assay) MPO peroxidation activity was measured in 100 mM KPi (pH 7.4) by utilizing the non-fluorescent reagent Amplex Red (Invitrogen Cat. #A12222) which can be oxidized to the highly fluorescent resorufin. Amplex Red is oxidized by the peroxidase action of MPO to resorufin. Reactions were carried out in 50 μL total volume by adding a 25 μL mixture of 200 pM myeloperoxidase and 40 nM H2O2(Sigma #349887) to 100 nL inhibitor in 100% DMSO in a 384 well Perkin Elmer Optiplate. Enzyme and compound were preincubated for ten minutes at room temperature. After the ten minute preincubation, 25 μL of an Amplex Red mixture containing 200 μM Amplex Red and 10 mM H2O2 was added to the plate. Kinetic determinations were carried out immediately on a Perkin Elmer Envision (15 minute kinetic read, Ex: 535 nm, Em: 590 nm). IC50 values were calculated by determining the slope of the linear portion of the kinetic trace (180-540 secs), and using that calculated slope to determine % inhibition occurring at each concentration of inhibitor using the following equation: [formula] where A=minimal Y value (activity level of inhibited sample), B=maximal Y value (activity level of uninhibited sample), C=Log IC50, D=Hill Slope, x=concentration of inhibitor. MPO Chlorination Assay (APF Assay)
# T1 sequence (P05164 49-745): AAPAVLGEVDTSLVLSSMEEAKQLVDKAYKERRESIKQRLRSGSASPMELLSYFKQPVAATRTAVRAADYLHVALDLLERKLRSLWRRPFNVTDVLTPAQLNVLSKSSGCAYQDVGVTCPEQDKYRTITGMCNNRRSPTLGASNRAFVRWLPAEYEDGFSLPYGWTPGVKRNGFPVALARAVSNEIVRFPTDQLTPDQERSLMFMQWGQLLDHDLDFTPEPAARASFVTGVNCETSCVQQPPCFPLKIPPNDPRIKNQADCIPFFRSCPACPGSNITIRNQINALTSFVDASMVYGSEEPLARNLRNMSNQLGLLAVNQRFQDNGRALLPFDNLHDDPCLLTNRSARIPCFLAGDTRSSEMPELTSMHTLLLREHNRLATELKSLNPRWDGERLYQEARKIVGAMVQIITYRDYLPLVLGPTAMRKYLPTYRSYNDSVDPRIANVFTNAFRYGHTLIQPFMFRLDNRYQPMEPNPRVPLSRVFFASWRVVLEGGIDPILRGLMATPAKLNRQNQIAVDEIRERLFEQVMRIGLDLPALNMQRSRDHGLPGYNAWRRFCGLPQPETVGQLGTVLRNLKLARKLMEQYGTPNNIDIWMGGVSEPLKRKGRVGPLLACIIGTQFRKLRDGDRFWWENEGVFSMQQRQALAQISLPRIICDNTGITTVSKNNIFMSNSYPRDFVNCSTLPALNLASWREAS
row,IC50,Structure (SMILES)
1,1 to 100 nM,"Nc1cc(Cc2cnn(Cc3cccc(O[C@H]4CCNC4)c3)c2)c2nn[nH]c2n1 [Example 240, 7-{[1-({3-[(3S)-Pyrrolidin-3-yloxy]phenyl}methyl)-1H-pyrazol-4-yl]methyl}-3H-[1,2,3]triazolo[4,5-b]pyridin-5-amine]"
2,1 to 100 nM,"Nc1cc(Cc2cnn(Cc3cccc(-c4c[nH]cn4)c3)c2)c2nn[nH]c2n1 [Example 278, 7-[(1-{[3-(1H-Imidazol-4-yl)phenyl]methyl}-1H-pyrazol-4-yl)methyl]-3H-[1,2,3]triazolo[4,5-b]pyridin-5-amine]"
3,1000 to 10000 nM,"Nc1cc(Cn2nc3cccc(Cl)c3n2)c2nn[nH]c2n1 [Example 164, 7-[(4-Chloro-2H-1,2,3-benzotriazol-2-yl)methyl]-3H-[1,2,3]triazolo[4,5-b]pyridin-5-amine]"
4,1 to 100 nM,"N#Cc1cccc(Cn2cc(Cc3cc(N)nc4[nH]nnc34)cn2)c1 [Example 158, 3-{[4-({5-Amino-3H-[1,2,3]triazolo[4,5-b]pyridin-7-yl}methyl)-1H-pyrazol-1-yl]methyl}benzonitrile]"
5,1000 to 10000 nM,"Cc1nnc([C@@H]2C[C@@H](Oc3cccc(Cn4cc(Cc5cc(N)nc6[nH]nnc56)cn4)c3)CN2)o1 [Example 246, 7-({1-[(3-{[(3R,5S)-5-(5-Methyl-1,3,4-oxadiazol-2-yl)pyrrolidin-3-yl]oxy}phenyl)methyl]-1H-pyrazol-4-yl}methyl)-3H-[1,2,3]triazolo[4,5-b]pyridin-5-amine]"
6,1 to 100 nM,"COc1cccc(-n2cc(Cc3cc(N)nc4[nH]nnc34)cn2)c1 [Example 23, 7-((1-(3-Methoxyphenyl)-1H-pyrazol-4-yl)methyl)-3H-[1,2,3]triazolo[4,5-b]pyridin-5-amine]"
7,101 to 999 nM,"COc1ccc(-n2cc(Cc3cc(N)nc4[nH]nnc34)cn2)cc1 [Example 27, 7-((1-(4-Methoxyphenyl)-1H-pyrazol-4-yl)methyl)-3H-[1,2,3]triazolo[4,5-b]pyridin-5-amine]"
8,1 to 100 nM,"Nc1cc(Cc2cnn(-c3cccc(OCc4ccccc4)c3)c2)c2nn[nH]c2n1 [Example 37, 7-((1-(3-(Benzyloxy)phenyl)-1H-pyrazol-4-yl)methyl)-3H-[1,2,3]triazolo[4,5-b]pyridin-5-amine]"
9,1 to 100 nM,"Nc1cc(Cc2cnn(-c3ccc(F)cn3)c2)c2nn[nH]c2n1 [Example 17, 7-((1-(5-Fluoropyridin-2-yl)-1H-pyrazol-4-yl)methyl)-3H-[1,2,3]triazolo[4,5-b]pyridin-5-amine]"
10,1 to 100 nM,"Nc1cc(Cc2cnn(-c3ccc(Br)cc3)c2)c2nn[nH]c2n1 [Example 8, 7-((1-(4-Bromophenyl)-1H-pyrazol-4-yl)methyl)-3H-[1,2,3]triazolo[4,5-b]pyridin-5-amine]"
11,1 to 100 nM,"Nc1cc(Cc2ccc(-c3ccccc3)s2)c2nn[nH]c2n1 [Example 49, 7-((5-Phenylthiophen-2-yl)methyl)-3H-[1,2,3]triazolo[4,5-b]pyridin-5-amine]"
12,101 to 999 nM,"Nc1cc(Cc2cnn(-c3cncc(F)c3)c2)c2nn[nH]c2n1 [Example 22, 7-((1-(5-Fluoropyridin-3-yl)-1H-pyrazol-4-yl)methyl)-3H-[1,2,3]triazolo[4,5-b]pyridin-5-amine]"
13,1 to 100 nM,"Nc1cc(Cc2cnn(-c3cccc(Br)c3)c2)c2nn[nH]c2n1 [Example 29, 7-((1-(3-Bromophenyl)-1H-pyrazol-4-yl)methyl)-3H-[1,2,3]triazolo[4,5-b]pyridin-5-amine]"
14,101 to 999 nM,"Nc1cc(Cc2cnn(-c3ccc4ccccc4c3)c2)c2nn[nH]c2n1 [Example 12, 7-((1-(Naphthalen-2-yl)-1H-pyrazol-4-yl)methyl)-3H-[1,2,3]triazolo[4,5-b]pyridin-5-amine]"
15,101 to 999 nM,"COc1cc(-n2cc(Cc3cc(N)nc4[nH]nnc34)cn2)ccn1 [Example 32, 7-((1-(2-Methoxypyridin-4-yl)-1H-pyrazol-4-yl)methyl)-3H-[1,2,3]triazolo[4,5-b]pyridin-5-amine]"
16,1 to 100 nM,"Nc1cc(Cc2ccc(-c3ccccn3)s2)c2nn[nH]c2n1 [Example 51, 7-((5-(Pyridin-2-yl)thiophen-2-yl)methyl)-3H-[1,2,3]triazolo[4,5-b]pyridin-5-amine]"

row,IC50,Structure (SMILES)
1,101 to 999 nM,"Cc1ccc(-n2cc(Cc3cc(N)nc4[nH]nnc34)cn2)cc1 [Example 26, 7-((1-(4-Methylphenyl)-1H-pyrazol-4-yl)methyl)-3H-[1,2,3]triazolo[4,5-b]pyridin-5-amine]"
2,101 to 999 nM,"Nc1cc(Cc2cnc(-c3ccc(F)cc3)s2)c2nn[nH]c2n1 [Example 47, 7-((2-(4-Fluorophenyl)thiazol-5-yl)methyl)-3H-[1,2,3]triazolo[4,5-b]pyridin-5-amine]"
3,101 to 999 nM,"CS(=O)(=O)c1ccc(Cn2cc(Cc3cc(N)nc4[nH]nnc34)cn2)cc1 [Example 58, 7-((1-(4-(Methylsulfonyl)benzyl)-1H-pyrazol-4-yl)methyl)-3H-[1,2,3]triazolo[4,5-b]pyridin-5-amine]"
4,1000 to 10000 nM,"Nc1cc(Cc2ccc(C(F)(F)F)o2)c2nn[nH]c2n1 [Example 70, 7-{[5-(Trifluoromethyl)furan-2-yl]methyl}-3H-[1,2,3]triazolo[4,5-b]pyridin-5-amine]"
5,101 to 999 nM,"Nc1cc(Cc2cnn(-c3ccc(=O)[nH]c3)c2)c2nn[nH]c2n1 [Example 38, 5-(4-((5-Amino-3H-[1,2,3]triazolo[4,5-b]pyridin-7-yl)methyl)-1H-pyrazol-1-yl)pyridin-2(1H)-one]"
6,101 to 999 nM,"Cc1cc(Cc2cc(N)nc3[nH]nnc23)sc1C [Example 50, 7-((4,5-Dimethylthiophen-2-yl)methyl)-3H-[1,2,3]triazolo[4,5-b]pyridin-5-amine]"
7,101 to 999 nM,"Nc1cc(Cc2cnn(-c3cccc4cccnc34)c2)c2nn[nH]c2n1 [Example 16, 7-((1-(Quinolin-8-yl)-1H-pyrazol-4-yl)methyl)-3H-[1,2,3]triazolo[4,5-b]pyridin-5-amine]"
8,1 to 100 nM,"Nc1cc(Cc2cnn(-c3cccc(C4CC4)c3)c2)c2nn[nH]c2n1 [Example 15, 7-((1-(3-Cyclopropylphenyl)-1H-pyrazol-4-yl)methyl)-3H-[1,2,3]triazolo[4,5-b]pyridin-5-amine]"
9,1 to 100 nM,"Cc1ccc(-n2cc(Cc3cc(N)nc4[nH]nnc34)cn2)c2ccccc12 [Example 13, 7-((1-(4-Methylnaphthalen-1-yl)-1H-pyrazol-4-yl)methyl)-3H-[1,2,3]triazolo[4,5-b]pyridin-5-amine]"
10,1 to 100 nM,"COc1ccc2cccc(-n3cc(Cc4cc(N)nc5[nH]nnc45)cn3)c2c1 [Example 35, 7-((1-(7-Methoxynaphthalen-1-yl)-1H-pyrazol-4-yl)methyl)-3H-[1,2,3]triazolo[4,5-b]pyridin-5-amine]"
11,1 to 100 nM,"Nc1cc(Cc2cnn(-c3cccnc3)c2)c2nn[nH]c2n1 [Example 30, 7-((1-(Pyridin-3-yl)-1H-pyrazol-4-yl)methyl)-3H-[1,2,3]triazolo[4,5-b]pyridin-5-amine]"
12,1 to 100 nM,"Nc1cc(Cc2cnn(-c3cncc4ccccc34)c2)c2nn[nH]c2n1 [Example 18, 7-((1-(Isoquinolin-4-yl)-1H-pyrazol-4-yl)methyl)-3H-[1,2,3]triazolo[4,5-b]pyridin-5-amine]"
13,1 to 100 nM,"CC(c1ccccc1)n1cc(Cc2cc(N)nc3[nH]nnc23)cn1 (stereo not drawn) [Example 63, 7-((1-(1-Phenylethyl)-1H-pyrazol-4-yl)methyl)-3H-[1,2,3]triazolo[4,5-b]pyridin-5-amine]"
14,101 to 999 nM,"COc1ccccc1-n1cc(Cc2cc(N)nc3[nH]nnc23)cn1 [Example 28, 7-((1-(2-Methoxyphenyl)-1H-pyrazol-4-yl)methyl)-3H-[1,2,3]triazolo[4,5-b]pyridin-5-amine]"
15,1000 to 10000 nM,"NC(=O)c1ccc(Cn2cc(Cc3cc(N)nc4[nH]nnc34)cn2)cc1 [Example 73, 4-((4-((5-Amino-3H-[1,2,3]triazolo[4,5-b]pyridin-7-yl)methyl)-1H-pyrazol-1-yl)methyl)benzamide]"

# Molecular target: T1, myeloperoxidase (MPO)
# Experiment: MPO chlorination assay (APF assay)
# Type: biochemical
# Details: potency range class
# Protocol: [formula] where A=minimal Y value (activity level of inhibited sample), B=maximal Y value (activity level of uninhibited sample), C=Log IC50, D=Hill Slope, x=concentration of inhibitor. MPO Chlorination Assay (APF Assay) MPO chlorination activity was measured in 100 mM KPi (pH 7.4) by utilizing the non-fluorescent reagent Aminophenyl fluorescein (APF, Invitrogen Cat. #A36003). APF is cleaved by (—OCl) to yield the fluorescent compound fluorescein. Reactions were carried out in 50 μL total volume by adding a 25 μL mixture of 200 pM myeloperoxidase and 120 mM NaCl to 100 nL inhibitor in 100% DMSO in a 384 well, non-binding surface clear bottom plate (Corning #3655). Enzyme, inhibitor, and chloride were preincubated for ten minutes at room temperature. After the ten minute preincubation, 25 μL of an APF mixture containing […], 120 mM NaCl and 10 μM H2O2 was added to the plate using the internal dispensing system of a Hammatsu FDSS 6000. Kinetic determinations were carried out immediately on the FDSS 6000 (3 minute kinetic read, 1 read every second, ex: 485 nm, em: 535 nm). IC50 values for inhibitors were calculated by taking the slope of the linear portion of the kinetic measurement (20 seconds to ˜80-120 secs). IC50 values were calculated by determining the slope of the linear portion of the kinetic trace […], and using that calculated slope to determine % inhibition occurring at each concentration of inhibitor using the following equation: [formula] where A=minimal Y value (activity level of inhibited sample), B=maximal Y value (activity level of uninhibited sample), C=Log IC50, D=Hill Slope, x=concentration of inhibitor. EPX Bromination Assay
row,IC50,Structure (SMILES)
1,1 to 100 nM,"Nc1cc(Cc2cnn(Cc3cccc(O[C@H]4CCNC4)c3)c2)c2nn[nH]c2n1 [Example 240, 7-{[1-({3-[(3S)-Pyrrolidin-3-yloxy]phenyl}methyl)-1H-pyrazol-4-yl]methyl}-3H-[1,2,3]triazolo[4,5-b]pyridin-5-amine]"
2,101 to 999 nM,"Nc1cc(Cc2cnn(Cc3cccc(-c4c[nH]cn4)c3)c2)c2nn[nH]c2n1 [Example 278, 7-[(1-{[3-(1H-Imidazol-4-yl)phenyl]methyl}-1H-pyrazol-4-yl)methyl]-3H-[1,2,3]triazolo[4,5-b]pyridin-5-amine]"
3,1000 to 10000 nM,"Nc1cc(Cn2nc3cccc(Cl)c3n2)c2nn[nH]c2n1 [Example 164, 7-[(4-Chloro-2H-1,2,3-benzotriazol-2-yl)methyl]-3H-[1,2,3]triazolo[4,5-b]pyridin-5-amine]"
4,1 to 100 nM,"N#Cc1cccc(Cn2cc(Cc3cc(N)nc4[nH]nnc34)cn2)c1 [Example 158, 3-{[4-({5-Amino-3H-[1,2,3]triazolo[4,5-b]pyridin-7-yl}methyl)-1H-pyrazol-1-yl]methyl}benzonitrile]"
5,1000 to 10000 nM,"Cc1nnc([C@@H]2C[C@@H](Oc3cccc(Cn4cc(Cc5cc(N)nc6[nH]nnc56)cn4)c3)CN2)o1 [Example 246, 7-({1-[(3-{[(3R,5S)-5-(5-Methyl-1,3,4-oxadiazol-2-yl)pyrrolidin-3-yl]oxy}phenyl)methyl]-1H-pyrazol-4-yl}methyl)-3H-[1,2,3]triazolo[4,5-b]pyridin-5-amine]"
